Measurements from ChEMBL document CHEMBL1201862, “PubChem BioAssay data set” (2004).
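Method: 48-hour compound exposure of cells in 96-well plates, five concentrations, linear interpolation of endpoints. The concentration for 50% growth inhibition is given as GI50.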 The source made the active and inactive calls. Rule as the data show it: active = GI50 up to about 1.1 µM and inactive = higher.

Tests used:
Experiment in all cases: NCI tumour cell line growth inhibition, 48 h
U-251 = tested on: U-251
MOLT-4 = tested on: MOLT-4
SF-268 = tested on: SF-268
ACHN = tested on: ACHN
HCC 2998 = tested on: HCC 2998
OVCAR-8 = tested on: OVCAR-8
MDA-MB-231 = tested on: MDA-MB-231
K562 = tested on: K562
DU-145 = tested on: DU-145
Hs-578T = tested on: Hs-578T
NCI-H522 = tested on: NCI-H522
PC-3 = tested on: PC-3
SK-MEL-2 = tested on: SK-MEL-2
A549 = tested on: A549
CAKI-1 = tested on: CAKI-1
SR = tested on: SR
SN12C = tested on: SN12C
OVCAR-4 = tested on: OVCAR-4
HCT-15 = tested on: HCT-15
786-0 = tested on: 786-0
LOX IMVI = tested on: LOX IMVI
MDA-N = tested on: MDA-N
TK-10 = tested on: TK-10
MDA-MB-435 = tested on: MDA-MB-435
EKVX = tested on: EKVX
OVCAR-3 = tested on: OVCAR-3
A498 = tested on: A498
IGROV-1 = tested on: IGROV-1
SK-MEL-28 = tested on: SK-MEL-28
M14 = tested on: M14
UACC-62 = tested on: UACC-62
Malme-3M = tested on: Malme-3M
SF-295 = tested on: SF-295
RXF 393 = tested on: RXF 393
HOP-62 = tested on: HOP-62
HOP-92 = tested on: HOP-92
NCI-H23 = tested on: NCI-H23
SNB-75 = tested on: SNB-75
NCI-H460 = tested on: NCI-H460
UO-31 = tested on: UO-31
SW-620 = tested on: SW-620
NCI/ADR-RES = tested on: NCI/ADR-RES
SNB-19 = tested on: SNB-19
BT-549 = tested on: BT-549
HT-29 = tested on: HT-29
OVCAR-5 = tested on: OVCAR-5
UACC-257 = tested on: UACC-257
T47D = tested on: T47D
HCT-116 = tested on: HCT-116
KM12 = tested on: KM12
CCRF-CEM = tested on: CCRF-CEM
SK-OV-3 = tested on: SK-OV-3
MCF7 = tested on: MCF7
NCI-H226 = tested on: NCI-H226
SK-MEL-5 = tested on: SK-MEL-5
COLO 205 = tested on: COLO 205
HL-60 = tested on: HL-60
SF-539 = tested on: SF-539

CCN(CC(=O)O)C(=O)c1cccnc1
GI50 (U-251): > 100 µM (inactive) | GI50 (MOLT-4): > 100 µM (inactive) | GI50 (SF-268): > 100 µM (inactive) | GI50 (ACHN): > 100 µM (inactive) | GI50 (HCC 2998): > 100 µM (inactive) | GI50 (OVCAR-8): > 100 µM (inactive) | GI50 (MDA-MB-231): > 100 µM (inactive) | GI50 (K562): > 100 µM (inactive) | GI50 (DU-145): > 100 µM (inactive) | GI50 (Hs-578T): > 100 µM (inactive) | GI50 (NCI-H522): > 100 µM (inactive) | GI50 (PC-3): > 100 µM (inactive) | GI50 (SK-MEL-2): > 100 µM (inactive) | GI50 (A549): > 100 µM (inactive) | GI50 (CAKI-1): > 100 µM (inactive) | GI50 (SR): > 100 µM (inactive) | GI50 (SN12C): > 100 µM (inactive) | GI50 (OVCAR-4): > 100 µM (inactive) | GI50 (HCT-15): > 100 µM | GI50 (786-0): > 100 µM (inactive) | GI50 (LOX IMVI): > 100 µM (inactive) | GI50 (MDA-N): > 100 µM (inactive) | GI50 (TK-10): > 100 µM (inactive) | GI50 (MDA-MB-435): > 100 µM (inactive) | GI50 (EKVX): > 100 µM (inactive) | GI50 (OVCAR-3): > 100 µM (inactive) | GI50 (A498): > 100 µM (inactive) | GI50 (IGROV-1): > 100 µM (inactive) | GI50 (SK-MEL-28): > 100 µM (inactive) | GI50 (M14): > 100 µM (inactive) | GI50 (UACC-62): > 100 µM (inactive) | GI50 (Malme-3M): > 100 µM (inactive) | GI50 (SF-295): > 100 µM (inactive) | GI50 (RXF 393): > 100 µM (inactive) | GI50 (HOP-62): > 100 µM (inactive) | GI50 (HOP-92): > 100 µM (inactive) | GI50 (NCI-H23): > 100 µM (inactive) | GI50 (SNB-75): > 100 µM (inactive) | GI50 (NCI-H460): > 100 µM (inactive) | GI50 (UO-31): > 100 µM (inactive) | GI50 (SW-620): > 100 µM (inactive) | GI50 (NCI/ADR-RES): > 100 µM (inactive) | GI50 (SNB-19): > 100 µM (inactive) | GI50 (BT-549): > 100 µM (inactive) | GI50 (HT-29): > 100 µM (inactive) | GI50 (OVCAR-5): > 100 µM (inactive) | GI50 (UACC-257): > 100 µM (inactive) | GI50 (T47D): > 100 µM (inactive) | GI50 (HCT-116): > 100 µM (inactive) | GI50 (KM12): > 100 µM (inactive)

Cc1c(F)c(N)c2c(=O)cc(-c3ccc(NC(=O)[C@@H](N)CCCCN)c(F)c3)oc2c1F
GI50 (SF-268): 12.8 µM (inactive) | GI50 (ACHN): 16.2 µM (inactive) | GI50 (OVCAR-8): 13.7 µM (inactive) | GI50 (MDA-MB-231): 16.3 µM (inactive) | GI50 (DU-145): 14.5 µM (inactive) | GI50 (PC-3): 16.6 µM (inactive) | GI50 (CCRF-CEM): 5.07 µM (inactive) | GI50 (SK-MEL-2): 17.5 µM (inactive) | GI50 (SN12C): 14.9 µM (inactive) | GI50 (HCT-15): 14 µM | GI50 (786-0): 7.48 µM (inactive) | GI50 (LOX IMVI): 16.3 µM (inactive) | GI50 (MDA-N): 12.5 µM (inactive) | GI50 (TK-10): 0.239 µM (active) | GI50 (SK-OV-3): 15.3 µM (inactive) | GI50 (MDA-MB-435): 8.65 µM (inactive) | GI50 (EKVX): 11 µM (inactive) | GI50 (A498): 0.057 µM (active) | GI50 (IGROV-1): 0.0532 µM (active) | GI50 (SK-MEL-28): 18.5 µM (inactive) | GI50 (M14): 20.7 µM (inactive) | GI50 (SF-295): 13.2 µM (inactive) | GI50 (RXF 393): 16.1 µM (inactive) | GI50 (HOP-62): 12.3 µM (inactive) | GI50 (HOP-92): 26.7 µM (inactive) | GI50 (NCI-H460): 0.132 µM (active) | GI50 (UO-31): 14.8 µM (inactive) | GI50 (MCF7): 0.0399 µM (active) | GI50 (NCI/ADR-RES): 20.4 µM (inactive) | GI50 (SNB-19): 27 µM (inactive) | GI50 (BT-549): 23.6 µM (inactive) | GI50 (HT-29): 14.3 µM (inactive) | GI50 (UACC-257): 0.209 µM (active) | GI50 (T47D): 0.0942 µM (active) | GI50 (HCT-116): 5.16 µM (inactive) | GI50 (KM12): 8.95 µM (inactive)

CC(C)(C)C(=O)c1c(O)c2ccccc2c2ccccc2c1=O
GI50 (U-251): 33.3 µM (inactive) | GI50 (MOLT-4): > 100 µM (inactive) | GI50 (SF-268): > 100 µM (inactive) | GI50 (ACHN): > 100 µM (inactive) | GI50 (OVCAR-8): 82.6 µM (inactive) | GI50 (NCI-H226): 49.4 µM (inactive) | GI50 (MDA-MB-231): > 100 µM (inactive) | GI50 (DU-145): > 100 µM (inactive) | GI50 (Hs-578T): 85.7 µM (inactive) | GI50 (NCI-H522): 23.7 µM (inactive) | GI50 (SK-MEL-5): > 100 µM (inactive) | GI50 (PC-3): > 100 µM (inactive) | GI50 (CCRF-CEM): > 100 µM (inactive) | GI50 (SK-MEL-2): > 100 µM (inactive) | GI50 (A549): > 100 µM (inactive) | GI50 (CAKI-1): > 100 µM (inactive) | GI50 (SN12C): > 100 µM (inactive) | GI50 (OVCAR-4): 62.1 µM (inactive) | GI50 (HCT-15): 64.4 µM | GI50 (786-0): > 100 µM (inactive) | GI50 (COLO 205): > 100 µM (inactive) | GI50 (LOX IMVI): 47.8 µM (inactive) | GI50 (MDA-N): > 100 µM (inactive) | GI50 (TK-10): 97.5 µM (inactive) | GI50 (SK-OV-3): > 100 µM (inactive) | GI50 (MDA-MB-435): > 100 µM (inactive) | GI50 (EKVX): > 100 µM (inactive) | GI50 (OVCAR-3): 59.2 µM (inactive) | GI50 (A498): 50.6 µM (inactive) | GI50 (SK-MEL-28): 58.7 µM (inactive) | GI50 (M14): 95.3 µM (inactive) | GI50 (UACC-62): 76.4 µM (inactive) | GI50 (SF-295): 48.6 µM (inactive) | GI50 (HOP-62): 82.2 µM (inactive) | GI50 (HOP-92): 32.4 µM (inactive) | GI50 (NCI-H23): 41 µM (inactive) | GI50 (SNB-75): 30.9 µM (inactive) | GI50 (NCI-H460): > 100 µM (inactive) | GI50 (UO-31): 33.2 µM (inactive) | GI50 (MCF7): > 100 µM (inactive) | GI50 (SW-620): > 100 µM (inactive) | GI50 (SNB-19): > 100 µM (inactive) | GI50 (BT-549): 32.4 µM (inactive) | GI50 (HL-60): > 100 µM (inactive) | GI50 (HT-29): 49.7 µM (inactive) | GI50 (OVCAR-5): > 100 µM (inactive) | GI50 (SF-539): > 100 µM (inactive) | GI50 (UACC-257): > 100 µM (inactive) | GI50 (T47D): 52.1 µM (inactive) | GI50 (HCT-116): > 100 µM (inactive) | GI50 (KM12): 79.3 µM (inactive)
